Assay results taken from patent US10787425B2, “Thiazolidinedione derivative and use thereof” (INDUSTRY-ACADEMIC COOPERATION FOUNDATION CHOSUN UNIVERSITY, priority 2016, dated 2020).

Experiments:
A549 cells = test: Measurement of PGE2 concentration in A549 cell medium (ELISA); assay type: cell-based, human; settings: for Increment %: PGE2 concentration versus PBS control, 5 μM, 12 hours; for PGE2 concentration: inhibitor 5 μM, medium collected after 12 hours, ELISA
Description: A549 cells were subcultured in RPMI 1640 medium (containing+8% fetal bovine serum (FBS) and antibiotic-antimycotic (AA)) for one week, and then, inoculated in a 6-well plate at 2.5×10^5 cells/mL (5×10^5 cells/well) and cultured for 24 hours in a 5% CO2 incubator at a temperature of 37° C. A549 cells are adenocarcinomic human alveolar basal epithelial cells which are derived from lung tissues. When cells were grown to about 80% confluence, a 15-PGDH inhibitor in 1×PBS buffer was injected at a concentration of 5 μM. To compare the results, the same amount of 1×PBS buffer was injected into a negative control, and, the treated cells were cultured in 5% CO2 incubator. After 12 hours, the medium was collected and the collected medium was assayed to measure PGE2 concentration by using an ELISA Kit (Abcam) according to the manufacturer's instructions. The concentration may be expressed as an exact value by plotting the calibration curve by using the absorbance value after diluting the standard in the medium by concentration.

15-PGDH = 15-PGDH (Homo sapiens (Human), UniProt P15428); test: 15-PGDH inhibitory activity (NADH at 340 nm); assay type: biochemical; settings: concentration inhibiting 50% of 15-PGDH activity; purified 15-PGDH, 21 μM PGE2, 0.25 mM NAD+
Description: The 15-PGDH cDNA plasmid containing the BamHI of the pGEX-2T expression vector and EcoRI restriction enzyme sites was transfected into E. coli BL-21 LysS by using conventional methods used in the art. Then, the transfected cells were cultured in an LB medium (500 ml) containing 50 μg/ml of ampicillin at a temperature of 37° C. and at a rate of 220 rpm until the OD600 reached 0.6. Then, isopropyl beta-D-thiogalactoxide (1 mM) was added and the cells were further cultured at the temperature of 25° C. for 12 hours. The cells were then centrifuged at the gravity of 4,000 g for 30 minutes at a temperature of 4° C. to collect a cell pellet. The cell pellet was dissolved in 20 ml of cell lysis buffer (containing 1×PBS buffer (pH 7.4): 1 mM EDTA and 0.1 mM DTT) and sonicated at a temperature of 4° C. for 14×10 s. The digested cells were centrifuged at the gravity of 4,000 g for 20 minutes at a temperature of 4° C. The supernatant was then slowly loaded onto a glutathione-sepharose 4B column equilibrated at a temperature of 4° C. with cell lysis buffer [containing 1×PBS buffer (pH 7.4), 1 mM EDTA, and 0.1 mM DTT]. Washing was performed thereon by using a dissolution buffer until the OD280 reached 0.005 or less. Then, 15-PGDH was eluted from the glutathione-sepharose 4B column at room temperature for 5 minutes by using an elution buffer [containing 50 mM Tris-HCl (pH 8.0), 10 mM reduced glutathione, 1 mM EDTA, and 0.1 mM DTT). The concentration of the purified enzyme was measured, and the purification level thereof was confirmed by SDS-PAGE.
That is, the cells were treated with a solution including 50 mM Tris-HCl (pH 7.5), 0.1 mM DTT, 0.25 mM (NAD+), 10 μg of purified 15-PGDH enzyme, 21 μM PGE2. and various concentrations (0.0001 μM to 64 μM) of the derivative compound according to the present disclosure. In this case, the total volume of the solution was 2 ml. Then, the absorbance of the reaction mixture was recorded at the wavelength of 340 nm. To measure the activity of the derivative compounds according to the present disclosure, which is an inhibitor of 15-PGDH, the average value of NADH absorbance at 340 nm at various concentrations was obtained from a standard curve.

Sequence of 15-PGDH (P15428 whole entry): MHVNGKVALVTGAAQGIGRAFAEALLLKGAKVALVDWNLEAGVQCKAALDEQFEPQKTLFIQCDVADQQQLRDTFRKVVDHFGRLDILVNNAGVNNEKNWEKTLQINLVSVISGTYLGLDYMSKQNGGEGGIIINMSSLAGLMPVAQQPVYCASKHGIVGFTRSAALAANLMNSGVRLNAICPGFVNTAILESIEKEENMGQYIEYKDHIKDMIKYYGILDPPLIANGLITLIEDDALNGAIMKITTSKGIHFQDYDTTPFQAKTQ

SMILES | Increment % (A549 cells) | PGE2 concentration (A549 cells) | IC50 (15-PGDH)
CCOc1cc(/C=C2\SC(=O)NC2=O)ccc1OC(=O)C1CC1 [Compound 46, (Z)-4-((2,4-dioxothiazolidin-5-ylidene)methyl)-2-ethoxyphenyl cyclopropanecarboxylate] | 1.78% | 278.8555 pg/mL | 2170 nM
O=C(CC1CCCCC1)Oc1ccc(/C=C2\SC(=O)NC2=O)c(Cl)c1 [Compound 97, (Z)-3-chloro-4-((2,4-dioxothiazolidin-5-ylidene)methyl)phenyl 2-cyclohexylacetate] | 8.1011% | 120.703 pg/mL | 27.7 nM
COc1cc(/C=C2\SC(=O)NC2=O)ccc1OC(=O)c1ccccc1.O=C(O)c1ccccc1 [Compound 41, (Z)-4-((2,4-dioxothiazolidin-5-ylidene)methyl)-2-methoxyphenyl benzoate] | −88.34% | 23.64 pg/mL | 151 nM
O=C1NC(=O)/C(=C/c2ccc(OC(=O)C3CC3)cc2Cl)S1 [Compound 91, (Z)-3-chloro-4-((2,4-dioxothiazolidin-5-ylidene)methyl)phenyl cyclopropanecarboxylate] | −4.5498% | 106.5773 pg/mL | 1080 nM
CCOc1cc(/C=C2\SC(=O)NC2=O)ccc1OC(=O)C1CCC1 [Compound 47, (Z)-4-((2,4-dioxothiazolidin-5-ylidene)methyl)-2-ethoxyphenyl cyclobutanecarboxylate] | −32.43% | 185.1274 pg/mL | 1620 nM
O=C1NC(=O)/C(=C/c2ccc(OC(=O)C3CCC3)c(Br)c2)S1 [Compound 17, (Z)-2-bromo-4-((2,4-dioxothiazolidin-5-ylidene)methyl)phenyl cyclobutanecarboxylate] | 56.34% | 395.597 pg/mL | 106 nM
O=C1NC(=O)/C(=C/c2ccc(OC(=O)C3CCCCC3)c(Br)c2)S1 [Compound 21, (Z)-2-bromo-4-((2,4-dioxothiazolidin-5-ylidene)methyl)phenyl cyclohexanecarboxylate] | 62.47% | 411.1081 pg/mL | 37.6 nM
O=C(CC1CCCC1)Oc1ccc(/C=C2\SC(=O)NC2=O)cc1Cl [Compound 4, (Z)-2-chloro-4-((2,4-dioxothiazolidin-5-ylidene)methyl)phenyl 2-cyclopentylacetate] | 103.32% | 556.6271 pg/mL | 78.3 nM
CCOc1cc(/C=C2\SC(=O)NC2=O)ccc1OC(=O)CCCCc1ccccc1 [Compound 60, (Z)-4-((2,4-dioxothiazolidin-5-ylidene)methyl)-2-ethoxyphenyl 5-phenylpentanoate] | 88.87% | 300.5549 pg/mL | 58.4 nM
O=C(CC1CCCCC1)Oc1ccc(/C=C2\SC(=O)NC2=O)cc1Br [Compound 22, (Z)-2-bromo-4-((2,4-dioxothiazolidin-5-ylidene)methyl)phenyl 2-cyclohexylacetate] | 89.77% | 480.187 pg/mL | 20.6 nM
O=C(CCCCC1CCCCC1)Oc1ccc(/C=C2\SC(=O)NC2=O)cc1 [Compound 70, (Z)-4-((2,4-dioxothiazolidin-5-ylidene)methyl)phenyl 5-cyclohexylpentanoate] | 69.97% | 219.5565 pg/mL | 50.4 nM
COc1cc(/C=C2\SC(=O)NC2=O)ccc1OC(=O)C1CC1 [Compound 31, (Z)-4-((2,4-dioxothiazolidin-5-ylidene)methyl)-2-methoxyphenyl cyclopropanecarboxylate] | 1.13% | 199.4327 pg/mL | 1100 nM
COc1cc(/C=C2\SC(=O)NC2=O)ccc1OC(=O)CCCCc1ccccc1 [Compound 45, (Z)-4-((2,4-dioxothiazolidin-5-ylidene)methyl)-2-methoxyphenyl 5-phenylpentanoate] | 78.78% | 362.494 pg/mL | 38.9 nM
O=C(CCCCC1CCCCC1)Oc1cccc(/C=C2\SC(=O)NC2=O)c1Cl [Compound 85, (Z)-2-chloro-3-((2,4-dioxothiazolidin-5-ylidene)methyl)phenyl 5-cyclohexylpentanoate] | −7.79% | 194.0212 pg/mL | 25.6 nM
COc1cc(/C=C2\SC(=O)NC2=O)ccc1OC(=O)CCC1CCCC1 [Compound 35, (Z)-4-((2,4-dioxothiazolidin-5-ylidene)methyl)-2-methoxyphenyl 3-cyclopentylpropanoate] | 130.79% | 455.1278 pg/mL | 23.4 nM
O=C(CCc1ccccc1)Oc1ccc(/C=C2\SC(=O)NC2=O)c(Cl)c1 [Compound 103, (Z)-3-chloro-4-((2,4-dioxothiazolidin-5-ylidene)methyl)phenyl 3-phenylpropanoate] | 159.989% | 290.2972 pg/mL | 87.5 nM
O=C(CCCCC1CCCCC1)Oc1ccc(/C=C2\SC(=O)NC2=O)cc1Cl [Compound 10, (Z)-2-chloro-4-((2,4-dioxothiazolidin-5-ylidene)methyl)phenyl 5-cyclohexylpentanoate] | 89.99% | 520.1337 pg/mL | 31.7 nM
O=C(CCC1CCCC1)Oc1ccc(/C=C2\SC(=O)NC2=O)cc1 [Compound 65, (Z)-4-((2,4-dioxothiazolidin-5-ylidene)methyl)phenyl 3-cyclopentylpropanoate] | 78.97% | 284.8007 pg/mL | 23.2 nM
O=C(CCCCc1ccccc1)Oc1ccc(/C=C2\SC(=O)NC2=O)cc1Br [Compound 30, (Z)-2-bromo-4-((2,4-dioxothiazolidin-5-ylidene)methyl)phenyl 5-phenylpentanoate] | 42.35% | 280.7203 pg/mL | 23.5 nM
COc1cc(/C=C2\SC(=O)NC2=O)ccc1OC(=O)CCCC1CCCCC1 [Compound 39, (Z)-4-((2,4-dioxothiazolidin-5-ylidene)methyl)-2-methoxyphenyl 4-cyclohexylbutanoate] | 220.24% | 649.318 pg/mL | 17.5 nM
CCOc1cc(/C=C2\SC(=O)NC2=O)ccc1OC(=O)CC1CCCCC1 [Compound 52, (Z)-4-((2,4-dioxothiazolidin-5-ylidene)methyl)-2-ethoxyphenyl 2-cyclohexylacetate] | −18.49% | 223.32 pg/mL | 32.8 nM
O=C(CC1CCCCC1)Oc1cccc(/C=C2\SC(=O)NC2=O)c1Cl [Compound 82, (Z)-2-chloro-3-((2,4-dioxothiazolidin-5-ylidene)methyl)phenyl 2-cyclohexylacetate] | 189.97% | 610.1325 pg/mL | 32.7 nM
O=C1NC(=O)/C(=C/c2ccc(OC(=O)C3CCCCC3)c(Cl)c2)S1 [Compound 6, (Z)-2-chloro-4-((2,4-dioxothiazolidin-5-ylidene)methyl)phenyl cyclohexanecarboxylate] | 27.71% | 349.6304 pg/mL | 137 nM
O=C(CCCCC1CCCCC1)Oc1ccc(/C=C2\SC(=O)NC2=O)cc1Br [Compound 25, (Z)-2-bromo-4-((2,4-dioxothiazolidin-5-ylidene)methyl)phenyl 5-cyclohexylpentanoate] | 5.34% | 266.5484 pg/mL | 26.3 nM
